Results reported in patent US8664217B2, “Benzodiazepine compound and pharmaceutical composition” (Otsuka Pharmaceutical Co., Ltd., priority 2008, dated 2014).
Structures can show the parent of a compound that is named as a salt.

Target: T1, human Kv1.5 channels (Homo sapiens, UniProt P22460)
T1 construct: Full-length human Kv1.5 cDNA was cloned from a human heart cDNA library; expressed in transfected cells; host or cells: CHO-K1
Assay: Measurement of human Kv1.5 channel current by whole-cell patch clamp method (human Kv1.5-expressing CHO-K1 cell line)
Assay type: cell-based
Conditions: human Kv1.5-expressing CHO-K1 cells, step end current at +40 mV, test compound 0.1, 1, 10 μM
Procedure: Pharmacological Test 1 (1) Production of Human Kv1.5-Expressing CHO-K1 Cell Lines
CHO-K1 cell lines stably expressing human Kv1.5 channels were prepared in the following manner.
Full-length human Kv1.5 cDNA was cloned from a human heart cDNA library (produced by Stratagene). The obtained human Kv1.5 sequence corresponds to the sequence described in FASEB J. 5, 331-337 (1991).
The obtained human Kv1.5 cDNA was inserted into a plasmid encoding a CMV promoter and a G418 resistance marker to produce a Kv1.5 expression vector. The human Kv1.5 expression vector was transfected into CHO-K1 cells by the lipofectamine method. After culturing the cells in an F-12 medium (produced by Invitrogen Corp.) containing 10% FBS (produced by Invitrogen Corp.) for 3 or 4 days, the medium was replaced with a FBS-containing F-12 medium that included 1,000 μg/ml of G418 (produced by Invitrogen Corp.), and single colonies were isolated. The amount of Kv1.5 channel expression in the single colonies was quantified at the mRNA level by RT-PCR and then quantified at the protein level by western blotting. Finally, the expressed current was analyzed by patch clamp method. Cell lines expressing a current of 200 pA or more per cell were selected as channel-expressing cell lines for activity measurement by patch clamp method.
(3) Measurement of Ion Channel Current by Patch Clamp Method (Human Kv1.5-Expressing CHO-K1 Cell Line)
An experiment was carried out using a patch clamp setup at room temperature (20 to 26° C.). A perfusion chamber having a diameter of 20 mm (flow rate: about 5 ml/min) was mounted on the stage of a phase-contrast inverted microscope (produced by Nikon Corporation) placed on a vibration isolated table. A poly-L-lysine (produced by Sigma)-coated coverslip (diameter: 15 mm, produced by Matsunami Glass Ind., Ltd.) on which human Kv1.5-expressing cells were cultured was placed in the perfusion chamber.
Depolarizing stimulation pulses were applied and ionic current was recorded by using a patch clamp amplifier (EPC-7 or EPC-7 PLUS, produced by HEKA) and a personal computer (manufactured by IBM Corp.) in which software for data acquisition and analysis of ion channel current (PULSE 8.77, produced by HEKA) was installed. The current was measured in the whole-cell configuration of the patch-clamp technique. The tip (resistance: 2 to 4 MΩ) of a borosilicate glass pipette (produced by Sutter Instrument Co.) was gently placed on the cell membrane by using a three-dimensional mechanical micromanipulator (produced by Shoshin EM Corporation). […] Subsequently, stronger suction was applied to break the cell membrane. The capacitative current derived from the cell membrane was corrected using a patch clamp amplifier. Subsequently, the series resistance (Rs) between the pipette and the interior of the cell was measured and corrected.
The composition of the extracellular solution used is shown below. Unless otherwise specified, these components were obtained from Wako Pure Chemical Industries, Ltd.
Each test compound was prepared as a 1000-fold concentrated stock solution that was dissolved in DMSO and then diluted in the extracellular solution.
The composition of the electrode internal solution used is shown below. Unless otherwise specified, these components were obtained from Wako Pure Chemical Industries, Ltd.
(5) Measurement of Human Kv1.5 Current
While the membrane potential was bolded at −80 mV, depolarizing pulses (−80 mV for 0.05 seconds→+40 mV for 0.2 seconds →−40 mV for 0.2 seconds→−80 mV for 0.05 seconds) were applied at a stimulation frequency of 1 Hz to measure Kv1.5 channel current. More specifically, first, while perfusing an extracellular solution containing 0.1% DMSO and holding the membrane potential at −80 mV, depolarizing pulses were applied. The current obtained during the pulse application was recorded as a current in the absence of the test compounds. […]

T1 sequence (P22460 whole entry): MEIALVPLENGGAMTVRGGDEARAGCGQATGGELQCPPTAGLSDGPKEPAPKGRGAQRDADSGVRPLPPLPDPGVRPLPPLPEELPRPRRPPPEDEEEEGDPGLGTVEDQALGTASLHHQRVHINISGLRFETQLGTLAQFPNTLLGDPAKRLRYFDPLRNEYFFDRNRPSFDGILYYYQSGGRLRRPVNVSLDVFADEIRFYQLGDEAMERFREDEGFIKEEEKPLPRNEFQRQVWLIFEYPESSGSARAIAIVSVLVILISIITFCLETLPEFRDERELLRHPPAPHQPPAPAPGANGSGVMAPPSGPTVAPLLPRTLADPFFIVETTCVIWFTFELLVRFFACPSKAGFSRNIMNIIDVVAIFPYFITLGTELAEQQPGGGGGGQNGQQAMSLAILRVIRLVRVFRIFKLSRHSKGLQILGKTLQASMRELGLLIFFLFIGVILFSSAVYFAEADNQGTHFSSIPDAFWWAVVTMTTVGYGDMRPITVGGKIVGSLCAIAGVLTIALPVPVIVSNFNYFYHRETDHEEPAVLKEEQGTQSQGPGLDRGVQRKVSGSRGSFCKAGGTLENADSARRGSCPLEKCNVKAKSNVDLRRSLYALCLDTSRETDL

Compound	IC50
CCN1C(=O)C(C)(C)C(=O)N(C)c2cc(OCCCN(CCn3ccc4sccc4c3=O)Cc3cccnc3)ccc21 [Example 568, 1-ethyl-3,3,5-trimethyl-7-(3-{[2-(4-oxo-4H-thieno[3,2-c]pyridin-5-yl)ethyl]pyridin-3-ylmethylamino}-propoxy)-1,5-dihydrobenzo[b][1,4]diazepine-2,4-dione]	420 nM
CCN1C(=O)C(C)(C)C(=O)N(C)c2cc(OCCCN(CCn3ccc4oc(C)cc4c3=O)Cc3ccncc3)ccc21 [Example 464, 1-ethyl-3,3,5-trimethyl-7-(3-{[2-(2-methyl-4-oxo-4H-furo[3,2-c]pyridin-5-yl)ethyl]pyridin-4-ylmethylamino}propoxy)-1,5-dihydrobenzo[b][1,4]diazepine-2,4-dione dihydrochloride]	440 nM
CCN1C(=O)C(C)(C)C(=O)N(C)c2cc(OCCCN(CCn3ccc4ccccc4c3=O)Cc3ccsc3)ccc21 [Example 125]	190 nM
CCN1C(=O)C(C)(C)C(=O)N(C)c2cc(OCCCN(CCn3ccc4oc(C)cc4c3=O)Cc3cnccc3C)ccc21 [Example 573, 1-ethyl-3,3,5-trimethyl-7-{3-[[2-(2-methyl-4-oxo-4H-furo[3,2-c]pyridin-5-yl)ethyl]-(4-methylpyridin-3-ylmethyl)amino]propoxy}-1,5-dihydrobenzo[b][1,4]diazepine-2,4-dione]	330 nM
CCCN1C(=O)C(C)(C)C(=O)N(C)c2cc(OCCCN(CCc3cccnc3)Cc3ccncc3)ccc21 [Example 10, 3,3,5-trimethyl-1-propyl-7-{3-[(2-pyridin-3-ylethyl)pyridin-4-ylmethylamino]propoxy}-1,5-dihydrobenzo[b][1,4]diazepine-2,4-dione trihydrochloride]	580 nM
CCN1C(=O)C(C)(C)C(=O)N(C)c2cc(OCCCN(CCn3ccc4ccccc4c3=O)Cc3ccco3)ccc21 [Example 132]	270 nM
CCN1C(=O)C(C)(C)C(=O)N(CC)c2cc(OCCCN(CCc3cccnc3)Cc3ccncc3)ccc21 [Example 14, 1,5-diethyl-3,3-dimethyl-7-{3-[(2-pyridin-3-ylethyl)pyridin-4-ylmethylamino]propoxy}-1,5-dihydrobenzo[b][1,4]diazepine-2,4-dione trihydrochloride]	580 nM
CCN1C(=O)C(C)(C)C(=O)N(C)c2cc(OCCCN(CCn3ccc4ccoc4c3=O)Cc3ccccc3C)ccc21 [Example 398]	220 nM
CCN1C(=O)C(C)(C)C(=O)N(C)c2cc(OCCCN(CCc3cccnc3)Cc3cccc(C#N)c3)ccc21 [Example 229]	160 nM
CCCc1ncccc1CN(CCCOc1ccc2c(c1)N(C)C(=O)C(C)(C)C(=O)N2CC)CCn1ccc2oc(C)cc2c1=O [Example 611, 1-ethyl-3,3,5-trimethyl-7-{3-[[2-(2-methyl-4-oxo-4H-furo[3,2-c]pyridin-5-yl)ethyl]-(2-propylpyridin-3-ylmethyl)amino]propoxy}-1,5-dihydrobenzo[b][1,4]diazepine-2,4-dione dihydrochloride]	310 nM
CCN1C(=O)C(C)(C)C(=O)N(C)c2cc(OCCCN(CCn3ccc4ccoc4c3=O)Cc3ccc(C(F)(F)F)cc3)ccc21 [Example 395]	190 nM
